Results: US12428408B2, “Fused heterocyclic mescaline derivatives” (Enveric Biosciences Canada Inc., priority 2022, dated 2025)

What was measured:
5-HT1B (h) = biological target: T1, 5-HT1B (h) (Homo sapiens, UniProt P28222); assay: Competition assay to measure binding affinity at 5-HT1B receptor; details: test ligand 10 μM; [3H]GR125743 1 nM
T1 construct: host or cells: Chem-1 (RBL) cells

5-HT1D (r) = biological target: T2, 5-HT1D (r) (Rattus norvegicus, UniProt P28565); assay: Competition assay to measure binding affinity at 5-HT1D receptor; details: test ligand 10 μM; [3H]serotonin 1 nM
T2 construct: host or cells: CHO cells

5-HT2B (h) = biological target: T3, 5-HT2B (h) (Homo sapiens, UniProt P41595); assay: Competition assay to measure binding affinity at 5-HT2B receptor; details: test ligand 10 μM; [3H]mesulergine 2 nM
T3 construct: host or cells: CHO cells

5-HT7 (h) = biological target: T4, 5-HT7 (h) (Homo sapiens, UniProt P34969); assay: Competition assay to measure binding affinity at 5-HT7 receptor; details: test ligand 10 μM; [3H]LSD 4 nM
T4 construct: host or cells: HEK-293 cells

alpha2A (h) = biological target: T5, alpha2A (h) (Homo sapiens, UniProt P08913); assay: Competition assay to measure binding affinity at alpha2A receptor; details: test ligand 10 μM, [3H]RX 821002 1 nM; for inhibition at 10 µM: read-out: α-2A, percent of control-specific binding
T5 construct: host or cells: CHO cells
T5 sequence (P08913 1-465): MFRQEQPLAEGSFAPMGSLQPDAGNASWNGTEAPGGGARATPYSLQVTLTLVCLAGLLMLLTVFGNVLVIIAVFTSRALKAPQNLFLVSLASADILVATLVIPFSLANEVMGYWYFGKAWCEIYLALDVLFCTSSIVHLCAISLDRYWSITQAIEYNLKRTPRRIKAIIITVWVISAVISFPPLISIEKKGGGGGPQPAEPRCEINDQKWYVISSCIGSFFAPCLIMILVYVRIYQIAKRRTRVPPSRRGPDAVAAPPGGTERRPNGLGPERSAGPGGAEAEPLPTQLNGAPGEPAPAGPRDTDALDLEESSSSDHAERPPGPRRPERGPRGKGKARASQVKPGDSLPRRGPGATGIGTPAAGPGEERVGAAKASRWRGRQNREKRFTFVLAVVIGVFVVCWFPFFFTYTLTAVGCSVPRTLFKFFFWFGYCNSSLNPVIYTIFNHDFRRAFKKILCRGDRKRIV

D2 (h) = biological target: T6, D2 (h) (Homo sapiens, UniProt P14416); assay: Competition assay to measure binding affinity at D2L receptor; details: test ligand 10 μM; [3H]methylspiperone 0.3 nM
T6 construct: host or cells: HEK-293 cells

D3 (h) = biological target: T7, D3 (h) (Homo sapiens, UniProt P35462); assay: Competition assay to measure binding affinity at D3 receptor; details: test ligand 10 μM; [3H]methylspiperone […]
T7 construct: host or cells: CHO cells

DAT (h) = biological target: T8, DAT (h) (Homo sapiens, UniProt Q01959); assay: Competition assay to measure binding affinity at dopamine transporter (DAT); details: test ligand 10 μM; [3H]BTCP 4 nM
T8 construct: host or cells: CHO cells

MT1 (ML1A) (h) = biological target: T9, MT1 (ML1A) (h) (Homo sapiens, UniProt P48039); assay: Competition assay to measure binding affinity at MT1 receptor; details: test ligand 10 μM; [125I]2-iodomelatonin 0.01 nM
T9 construct: host or cells: CHO cells

NET (h) = biological target: T10, NET (h) (Homo sapiens, UniProt P23975); assay: Competition assay to measure binding affinity at norepinephrine transporter (NET); details: test ligand 10 μM; [3H]nisoxetine 1 nM
T10 construct: host or cells: CHO cells

5-HT2C (h) = biological target: T11, 5-HT2C (h) (Homo sapiens, UniProt P28335); assay: Competition assay to measure binding affinity at 5-HT2C receptor; details: test ligand 10 μM; [125I](±)DOI 0.1 nM
T11 construct: host or cells: HEK-293 cells
T11 sequence (P28335 33-458): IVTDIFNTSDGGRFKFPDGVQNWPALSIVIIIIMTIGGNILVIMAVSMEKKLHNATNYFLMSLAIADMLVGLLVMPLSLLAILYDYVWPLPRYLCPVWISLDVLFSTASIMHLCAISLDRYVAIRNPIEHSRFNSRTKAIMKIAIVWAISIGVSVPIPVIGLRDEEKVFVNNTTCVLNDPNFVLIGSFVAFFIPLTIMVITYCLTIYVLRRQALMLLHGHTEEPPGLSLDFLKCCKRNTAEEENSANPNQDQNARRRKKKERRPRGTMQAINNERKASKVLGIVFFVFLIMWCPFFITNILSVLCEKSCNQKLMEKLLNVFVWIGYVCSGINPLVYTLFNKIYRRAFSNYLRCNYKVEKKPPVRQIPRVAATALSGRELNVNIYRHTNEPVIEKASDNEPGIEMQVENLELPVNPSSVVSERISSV

[1] = biological target: T12, human serotonin transporter (SERT) (Homo sapiens, UniProt P31645); assay: biochemical; format: binding
T12 construct: purchased PerkinElmer RBHSTM400UA

5-HT1A receptor = biological target: T13, 5-HT1A receptor (Homo sapiens, UniProt P08908); assay: 5-HT1A receptor radioligand competition assay (SPA); format: binding
T13 construct: purchased Perkin Elmer 6110501400UA
T13 sequence (P08908 1-422): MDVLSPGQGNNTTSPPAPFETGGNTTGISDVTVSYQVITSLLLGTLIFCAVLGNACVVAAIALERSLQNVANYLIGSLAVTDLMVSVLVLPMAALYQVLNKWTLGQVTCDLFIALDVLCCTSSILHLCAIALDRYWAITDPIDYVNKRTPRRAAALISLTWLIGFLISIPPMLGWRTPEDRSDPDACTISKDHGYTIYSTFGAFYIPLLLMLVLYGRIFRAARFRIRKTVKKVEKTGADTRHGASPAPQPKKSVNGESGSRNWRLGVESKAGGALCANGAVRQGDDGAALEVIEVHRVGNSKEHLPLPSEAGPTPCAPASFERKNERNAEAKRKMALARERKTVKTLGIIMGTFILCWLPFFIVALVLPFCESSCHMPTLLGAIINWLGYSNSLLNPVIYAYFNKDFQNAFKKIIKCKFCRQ

T2 sequence (P28565 whole entry): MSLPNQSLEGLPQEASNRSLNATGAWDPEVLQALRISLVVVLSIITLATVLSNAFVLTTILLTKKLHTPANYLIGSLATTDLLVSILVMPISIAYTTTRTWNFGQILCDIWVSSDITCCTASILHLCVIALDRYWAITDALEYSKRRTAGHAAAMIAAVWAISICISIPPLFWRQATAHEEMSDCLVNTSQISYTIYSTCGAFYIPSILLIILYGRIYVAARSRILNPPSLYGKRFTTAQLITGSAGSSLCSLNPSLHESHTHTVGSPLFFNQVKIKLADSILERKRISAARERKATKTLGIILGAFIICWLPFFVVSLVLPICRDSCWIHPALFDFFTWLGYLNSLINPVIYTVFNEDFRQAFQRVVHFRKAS
T3 sequence (P41595 whole entry): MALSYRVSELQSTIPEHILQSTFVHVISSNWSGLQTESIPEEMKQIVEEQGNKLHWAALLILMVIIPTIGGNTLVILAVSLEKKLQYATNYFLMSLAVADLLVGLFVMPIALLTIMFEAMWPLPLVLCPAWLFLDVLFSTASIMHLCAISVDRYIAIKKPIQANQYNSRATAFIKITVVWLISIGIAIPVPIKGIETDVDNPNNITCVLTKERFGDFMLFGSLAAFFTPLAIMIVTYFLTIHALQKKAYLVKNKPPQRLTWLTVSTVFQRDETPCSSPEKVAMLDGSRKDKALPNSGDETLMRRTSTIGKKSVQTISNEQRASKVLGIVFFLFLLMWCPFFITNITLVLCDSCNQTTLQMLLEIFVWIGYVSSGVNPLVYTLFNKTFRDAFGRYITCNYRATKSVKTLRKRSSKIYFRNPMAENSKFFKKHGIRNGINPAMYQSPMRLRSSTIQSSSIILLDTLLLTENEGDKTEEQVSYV
T9 sequence (P48039 whole entry): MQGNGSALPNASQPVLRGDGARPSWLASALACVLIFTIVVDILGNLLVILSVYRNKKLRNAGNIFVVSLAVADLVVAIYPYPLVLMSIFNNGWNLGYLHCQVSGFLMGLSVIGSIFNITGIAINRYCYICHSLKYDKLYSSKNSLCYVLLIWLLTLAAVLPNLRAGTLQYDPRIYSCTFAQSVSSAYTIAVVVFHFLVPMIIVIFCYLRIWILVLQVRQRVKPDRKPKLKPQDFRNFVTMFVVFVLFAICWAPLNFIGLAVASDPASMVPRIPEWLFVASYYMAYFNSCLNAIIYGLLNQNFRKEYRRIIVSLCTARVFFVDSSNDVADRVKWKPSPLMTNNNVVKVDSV
T8 sequence (Q01959 whole entry): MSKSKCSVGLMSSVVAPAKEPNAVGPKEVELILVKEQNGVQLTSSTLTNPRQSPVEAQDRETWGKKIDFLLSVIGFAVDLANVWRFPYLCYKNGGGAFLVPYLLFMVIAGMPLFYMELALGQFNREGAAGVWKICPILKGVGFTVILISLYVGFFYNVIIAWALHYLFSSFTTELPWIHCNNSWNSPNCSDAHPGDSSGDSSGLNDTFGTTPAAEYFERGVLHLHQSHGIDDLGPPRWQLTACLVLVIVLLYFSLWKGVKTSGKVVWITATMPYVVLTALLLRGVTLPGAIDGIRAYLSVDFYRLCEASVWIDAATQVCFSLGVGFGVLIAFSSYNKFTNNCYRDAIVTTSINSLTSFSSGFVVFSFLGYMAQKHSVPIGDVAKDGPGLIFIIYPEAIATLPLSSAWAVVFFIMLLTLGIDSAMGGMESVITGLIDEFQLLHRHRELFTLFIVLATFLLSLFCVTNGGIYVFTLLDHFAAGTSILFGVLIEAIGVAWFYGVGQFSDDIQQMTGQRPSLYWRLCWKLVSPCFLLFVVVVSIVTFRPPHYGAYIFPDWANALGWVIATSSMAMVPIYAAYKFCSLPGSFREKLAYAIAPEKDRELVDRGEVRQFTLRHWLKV
T1 sequence (P28222 whole entry): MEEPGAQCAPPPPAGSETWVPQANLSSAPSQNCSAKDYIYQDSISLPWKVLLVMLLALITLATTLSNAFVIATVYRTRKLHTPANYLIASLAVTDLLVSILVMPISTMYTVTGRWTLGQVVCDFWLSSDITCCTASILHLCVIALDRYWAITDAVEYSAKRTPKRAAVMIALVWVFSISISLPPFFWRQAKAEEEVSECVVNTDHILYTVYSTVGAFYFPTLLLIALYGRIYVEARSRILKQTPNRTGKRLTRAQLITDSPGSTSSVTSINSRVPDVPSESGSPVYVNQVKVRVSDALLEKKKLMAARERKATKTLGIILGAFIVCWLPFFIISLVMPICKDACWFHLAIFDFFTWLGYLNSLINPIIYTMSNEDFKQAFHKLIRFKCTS
T12 sequence (P31645 whole entry): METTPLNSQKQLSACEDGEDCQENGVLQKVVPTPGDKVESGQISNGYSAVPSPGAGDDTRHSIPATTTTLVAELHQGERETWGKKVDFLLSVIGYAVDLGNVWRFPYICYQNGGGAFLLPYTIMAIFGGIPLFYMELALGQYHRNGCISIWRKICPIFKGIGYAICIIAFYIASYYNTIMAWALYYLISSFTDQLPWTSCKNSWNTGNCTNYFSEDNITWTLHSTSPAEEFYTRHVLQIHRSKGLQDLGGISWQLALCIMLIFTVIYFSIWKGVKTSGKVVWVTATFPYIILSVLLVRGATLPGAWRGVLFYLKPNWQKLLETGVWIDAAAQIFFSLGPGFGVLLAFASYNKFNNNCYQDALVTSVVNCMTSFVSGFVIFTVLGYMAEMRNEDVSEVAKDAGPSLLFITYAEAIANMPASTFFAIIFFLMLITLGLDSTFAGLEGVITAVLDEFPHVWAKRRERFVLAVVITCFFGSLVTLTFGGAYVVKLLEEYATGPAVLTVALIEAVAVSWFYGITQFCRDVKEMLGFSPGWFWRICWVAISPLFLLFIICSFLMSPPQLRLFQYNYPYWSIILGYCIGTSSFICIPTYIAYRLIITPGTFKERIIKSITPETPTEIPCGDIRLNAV
T7 sequence (P35462 whole entry): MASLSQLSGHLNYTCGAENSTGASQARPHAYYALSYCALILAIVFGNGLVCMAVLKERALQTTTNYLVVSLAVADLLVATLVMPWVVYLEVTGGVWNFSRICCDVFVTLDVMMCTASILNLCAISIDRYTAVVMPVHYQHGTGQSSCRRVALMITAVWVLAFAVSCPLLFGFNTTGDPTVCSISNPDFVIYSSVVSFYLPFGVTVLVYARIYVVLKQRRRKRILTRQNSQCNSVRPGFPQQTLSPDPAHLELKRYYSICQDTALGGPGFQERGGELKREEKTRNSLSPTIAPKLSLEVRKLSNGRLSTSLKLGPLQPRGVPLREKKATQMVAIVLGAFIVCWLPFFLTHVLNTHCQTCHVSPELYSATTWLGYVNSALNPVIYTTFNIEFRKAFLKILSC
T6 sequence (P14416 whole entry): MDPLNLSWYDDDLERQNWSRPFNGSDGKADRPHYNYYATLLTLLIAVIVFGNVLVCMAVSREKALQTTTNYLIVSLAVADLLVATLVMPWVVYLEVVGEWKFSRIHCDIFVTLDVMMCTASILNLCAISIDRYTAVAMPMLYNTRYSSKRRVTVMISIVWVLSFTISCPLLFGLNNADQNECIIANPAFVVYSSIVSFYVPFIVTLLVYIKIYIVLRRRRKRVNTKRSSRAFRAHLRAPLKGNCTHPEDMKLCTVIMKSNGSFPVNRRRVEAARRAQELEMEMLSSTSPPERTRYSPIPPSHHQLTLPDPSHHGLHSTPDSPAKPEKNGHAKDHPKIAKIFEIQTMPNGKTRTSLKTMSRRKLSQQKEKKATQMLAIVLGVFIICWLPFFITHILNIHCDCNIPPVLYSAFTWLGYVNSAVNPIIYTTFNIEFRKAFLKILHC
T10 sequence (P23975 whole entry): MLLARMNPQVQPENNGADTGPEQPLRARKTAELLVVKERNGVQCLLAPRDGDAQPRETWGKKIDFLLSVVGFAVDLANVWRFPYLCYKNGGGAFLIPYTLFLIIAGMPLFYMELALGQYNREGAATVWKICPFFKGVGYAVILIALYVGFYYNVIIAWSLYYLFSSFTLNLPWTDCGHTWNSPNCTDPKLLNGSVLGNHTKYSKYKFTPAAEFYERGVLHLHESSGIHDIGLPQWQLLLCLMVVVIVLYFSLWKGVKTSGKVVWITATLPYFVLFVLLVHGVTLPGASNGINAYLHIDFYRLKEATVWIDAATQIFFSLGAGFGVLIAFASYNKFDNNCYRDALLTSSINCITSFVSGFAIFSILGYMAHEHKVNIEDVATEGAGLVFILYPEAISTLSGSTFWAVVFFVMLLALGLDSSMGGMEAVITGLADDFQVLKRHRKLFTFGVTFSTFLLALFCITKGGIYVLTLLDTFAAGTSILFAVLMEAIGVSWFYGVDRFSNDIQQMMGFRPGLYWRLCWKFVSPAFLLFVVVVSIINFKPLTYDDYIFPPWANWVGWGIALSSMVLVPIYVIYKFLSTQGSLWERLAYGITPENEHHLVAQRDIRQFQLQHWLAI
T4 sequence (P34969 whole entry): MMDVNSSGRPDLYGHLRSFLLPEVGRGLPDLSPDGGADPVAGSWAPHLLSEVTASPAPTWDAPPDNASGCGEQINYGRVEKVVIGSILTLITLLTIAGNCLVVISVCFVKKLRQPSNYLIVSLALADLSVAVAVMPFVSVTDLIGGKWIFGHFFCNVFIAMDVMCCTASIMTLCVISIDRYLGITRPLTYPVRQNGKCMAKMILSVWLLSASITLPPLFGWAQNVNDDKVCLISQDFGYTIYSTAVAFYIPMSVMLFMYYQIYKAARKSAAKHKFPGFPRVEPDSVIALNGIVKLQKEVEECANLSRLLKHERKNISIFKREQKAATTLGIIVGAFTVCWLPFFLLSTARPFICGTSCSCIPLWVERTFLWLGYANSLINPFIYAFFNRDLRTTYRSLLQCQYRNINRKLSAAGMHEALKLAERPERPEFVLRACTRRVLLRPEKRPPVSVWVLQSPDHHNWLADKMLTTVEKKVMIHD

Compound | HT1B, percent of control-specific binding (5-HT1B (h)) [%] | HT1D, percent of control-specific binding (5-HT1D (r)) [%] | HT2B, percent of control-specific binding (5-HT2B (h)) [%] | HT7, percent of control-specific binding (5-HT7 (h)) [%] | α-2A, percent of control-specific binding (alpha2A (h)) [%] | D2, percent of control-specific binding (D2 (h)) [%] | D3, percent of control-specific binding (D3 (h)) [%] | DAT, percent of control-specific binding (DAT (h)) [%] | MT1, percent of control-specific binding (MT1 (ML1A) (h)) [%] | NET, percent of control-specific binding (NET (h)) [%] | HT2C, percent of control-specific binding (5-HT2C (h)) [%] | inhibition at 10 µM (alpha2A (h)) [%] | Ki [1] [µM] | SERT binding, binding curve in words [1] | 5-HT1A receptor binding, binding curve in words (5-HT1A receptor; FIGS. 35C-35L) | Ki (5-HT1A receptor; competition with 0.5 nM 8-hydroxy-DPAT [3H], test compound 3 nM to 1 mM, read-out: 5-HT1A, Ki) [µM]
COc1cc(CC(C)N)c(OC)cc1Br (centres unmarked) [DOB, reference compound] | 20 | 84 | 97 | 65 | 66 | 9 | 25 | 3 | −3 | 6 | – | – | – | – | – | –
COc1ccc2[nH]cc(CCNC(C)=O)c2c1 [Melatonin, reference compound] | 0 | 13 | 52 | – | – | −20 | 2 | 4 | 98 | −2 | 19 | -7 | – | – | – | –
O=c1n(CCCN2CCN(c3cccc(Cl)c3)CC2)nc2ccccn12 [Trazodone, reference compound] | 61 | – | 97 | – | – | 61 | 89 | 24 | 14 | −1 | 93 | 91 | – | – | – | –
CN(C)CCCN1c2ccccc2CCc2ccccc21 [Imipramine, reference compound] | 36 | 39 | 94 | – | – | 82 | 92 | 23 | 29 | 99 | 98 | 57 | – | – | – | –
CNCC[C@H](Oc1cccc2ccccc12)c1cccs1 [Duloxetine, reference compound] | 52 | 63 | 95 | – | – | 24 | 66 | – | 23 | – | 92 | – | – | – | – | –
COc1ccc2cccc(CCNC(C)=O)c2c1 [Agomelatine, reference compound] | −9 | 10 | 93 | – | – | −4 | 6 | 1 | 99 | 1 | 92 | 2 | – | – | – | –
N#Cc1ccc2[nH]cc(CCCCN3CCN(c4ccc5oc(C(N)=O)cc5c4)CC3)c2c1 [Vilazodone, reference compound] | 67 | 97 | 96 | – | – | 97 | 99 | 98 | 84 | 99 | 92 | 65 | – | – | – | –
Cc1ccc(Sc2ccccc2N2CCNCC2)c(C)c1 [vortioxetine, reference compound] | 101 | 100 | 97 | – | – | 51 | 88 | 90 | 26 | 99 | 99 | 62 | 0.00203 | very tight interaction | – | –
CC(NC(C)(C)C)C(=O)c1cccc(Cl)c1 (centres unmarked) [Bupropion, reference compound] | 9 | −1 | −2 | – | – | −5 | 3 | 92 | 83 | – | 1 | 2 | – | – | – | –
N[C@@H](Cc1c[nH]c2ccccc12)C(=O)O [tryptophan, reference compound] | −22 | 3 | 0 | – | – | −19 | −23 | 1 | −2 | 1 | 25 | -4 | > 1000 | no binding to SERT | no binding | > 1000
